Measured values: patent US12187759B2, “TLR7 agonists” (Primmune Therapeutics, Inc., priority 2019, dated 2025)

Experiments:
[1] = target: T1, human TLR7 (Homo sapiens, UniProt Q9NYK1); test: TLR7 reporter cell assay (HEK293 cells stably expressing human TLR7 with NF-κB-driven SEAP reporter); format: cell-based; settings: 15-24 hours; for Emax at 500 µM: HEK293, 500 μM compound, SEAP activity (OD 650 nm) relative to 28.5 μM resiquimod, read-out: Response at 500 μM Compound as a Percent of Resiquimod Response; for EC50: fit of SEAP dose response, ymax from 28.5 μM resiquimod
T1 construct: host or cells: HEK293
T1 sequence (Q9NYK1 27-1049): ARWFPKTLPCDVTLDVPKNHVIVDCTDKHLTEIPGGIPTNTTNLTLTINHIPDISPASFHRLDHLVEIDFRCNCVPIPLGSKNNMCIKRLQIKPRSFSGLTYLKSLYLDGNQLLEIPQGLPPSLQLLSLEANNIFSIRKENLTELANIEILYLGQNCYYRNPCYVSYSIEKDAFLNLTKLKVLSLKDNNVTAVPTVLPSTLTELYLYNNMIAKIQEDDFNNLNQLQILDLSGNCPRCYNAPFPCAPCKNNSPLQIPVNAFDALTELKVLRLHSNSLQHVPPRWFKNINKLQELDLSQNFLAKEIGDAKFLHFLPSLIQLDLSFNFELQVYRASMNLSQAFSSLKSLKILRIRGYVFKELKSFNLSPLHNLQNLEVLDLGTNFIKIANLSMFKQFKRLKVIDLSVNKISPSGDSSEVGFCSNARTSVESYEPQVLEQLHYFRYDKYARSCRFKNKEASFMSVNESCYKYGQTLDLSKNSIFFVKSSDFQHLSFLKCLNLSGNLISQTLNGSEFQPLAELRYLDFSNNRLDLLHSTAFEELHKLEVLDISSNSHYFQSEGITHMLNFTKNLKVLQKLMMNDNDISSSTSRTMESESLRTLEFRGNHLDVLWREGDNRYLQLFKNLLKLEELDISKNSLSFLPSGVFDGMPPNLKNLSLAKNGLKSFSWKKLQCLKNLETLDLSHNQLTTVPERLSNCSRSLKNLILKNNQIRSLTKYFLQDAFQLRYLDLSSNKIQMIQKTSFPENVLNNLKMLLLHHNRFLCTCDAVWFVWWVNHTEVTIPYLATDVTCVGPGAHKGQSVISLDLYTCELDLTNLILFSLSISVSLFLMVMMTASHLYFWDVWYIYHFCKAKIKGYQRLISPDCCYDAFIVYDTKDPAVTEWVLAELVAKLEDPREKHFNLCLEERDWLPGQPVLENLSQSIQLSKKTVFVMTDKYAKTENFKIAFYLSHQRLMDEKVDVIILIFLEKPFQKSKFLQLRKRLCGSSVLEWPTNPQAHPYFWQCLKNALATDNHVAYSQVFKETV
Summary of the method: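 HEK293 cells stably expressing human TLR7 with an NF-κB-driven SEAP reporter, treated with compound for 15-24 hours. SEAP read at OD 650 nm. EC50 fitted by nonlinear least squares, maximum set by 28.5 μM resiquimod.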

[2] = system: hPBMCs (Human Peripheral Blood Mononuclear Cells); test: Induction of interferon-α in hPBMCs in vitro; format: cell-based; settings: Homo sapiens, PBMC; for Emax: 24 h, peak IFNα2a as percentage of peak response of standard 2-Amino-7-(cyclopropylmethyl)-9-B-D-xylofuranosyl-7,9-dihydro-1H-purine-6,8-dione, averaged across donors, read-out: IFNrmax, Relative Maximal IFNα2a Production (%); for minimal effective concentration: minimal effective concentration for interferon-α production (generally at least 80 pg/ml above baseline), geometric mean across at least three donors, 24 hours, read-out: Weighted MEC
Summary of the method: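 Peripheral blood mononuclear cells from healthy human donors were dispensed into replicate culture wells at 1.0-7.5×10^6 cells per well. They were exposed to test compound for 24 hours at 37° C. in humidified 5% CO2, with untreated wells as controls. Secreted interferon-α was quantified with a multisubtype ELISA or as IFNα2a in a luminex panel. MEC was defined as the lowest concentration giving a significant rise above baseline, generally at least 80 pg/ml. IFNmax was the highest IFN level seen at any tested concentration.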

| Emax at 500 µM [1] | EC50 [1] | SMILES | Emax [2] | minimal effective concentration [2] |
| --- | --- | --- | --- | --- |
| < 5% |  | C#CCn1c(=O)n([C@@H]2O[C@H](C(N)=O)C[C@H]2O)c2nc(N)[nH]c(=O)c21 [Compound 41, (2S,4R,5R)-5-(2-Amino-6,8-dioxo-7-(prop-2-yn-1-yl)-1,6,7,8-tetrahydro-9H-purin-9-yl)-4-hydroxytetrahydrofuran-2-carboxamide] | ≤ 10% | > 50 µM |
| < 5% |  | C#CCn1c(=O)n([C@@H]2O[C@H](C(=O)NC)C[C@H]2O)c2nc(N)[nH]c(=O)c21 [Compound 42, (2S,4R,5R)-5-(2-Amino-6,8-dioxo-7-(prop-2-yn-1-yl)-1,6,7,8-tetrahydro-9H-purin-9-yl)-4-hydroxy-N-methyltetrahydrofuran-2-carboxamide] | ≤ 10% | > 50 µM |
| 97% | 55 µM | CC[C@H](O)[C@@H]1C[C@@H](O)[C@H](n2c(=O)n(CC(F)(F)F)c3c(=O)[nH]c(N)nc32)O1 [Compound 43, 2-Amino-9-((2R,3R,5S)-3-hydroxy-5-((S)-1-hydroxypropyl)tetrahydrofuran-2-yl)-7-(2,2,2-trifluoroethyl)-7,9-dihydro-1H-purine-6,8-dione] | 158% | 2.5 µM |
| 101% | 86 µM | CC[C@H](O)[C@H]1O[C@@H](n2c(=O)n(CC(F)(F)F)c3c(=O)[nH]c(N)nc32)[C@H](O)[C@H]1F [Compound 44, 2-Amino-9-((2R,3S,4R,5R)-4-fluoro-3-hydroxy-5-((S)-1-hydroxypropyl)tetrahydrofuran-2-yl)-7-(2,2,2-trifluoroethyl)-7,9-dihydro-1H-purine-6,8-dione] | 250% | 2 µM |
| 66% | 185 µM | C#CCn1c(=O)n([C@@H]2O[C@H]([C@@H](O)CSC)C[C@H]2O)c2nc(N)[nH]c(=O)c21 [Compound 45, 2-Amino-9-((2R,3R,5S)-3-hydroxy-5-((R)-1-hydroxy-2-(methylthio)ethyl)tetrahydrofuran-2-yl)-7-(prop-2-yn-1-yl)-7,9-dihydro-1H-purine-6,8-dione] | 321% | 5 µM |
| 30% | > 500 µM | CC[C@H](O)[C@H]1O[C@@H](n2c(=O)n(CCSC)c3c(=O)[nH]c(N)nc32)[C@H](O)[C@H]1F [Compound 46, 2-Amino-9-((2R,3S,4R,5R)-4-fluoro-3-hydroxy-5-((S)-1-hydroxypropyl)tetrahydrofuran-2-yl)-7-(2-(methylthio)ethyl)-7,9-dihydro-1H-purine-6,8-dione] | 317% | 3.1 µM |
